Assay results: patent US20240391930A1, “SPIROCYCLIC BICYCLIC MODULATORS OF CHOLESTEROL BIOSYNTHESIS AND THEIR USE FOR PROMOTING REMYELINATION” (GENENTECH, INC., priority 2021, published 2024)

Columns and labels:
[1] = biological target: T1, human emopamil binding protein and human 7-dehydrocholesterol reductase (hEBP-DHCR7) (Homo sapiens, UniProt Q15125); experiment: hEBP-DHCR7 radioligand filtration binding assay; details: membranes of HEK293 co-expressing hEBP and DHCR7; [3H] 2-thia-6-azaspiro[3.4]octane radioligand; 8 doses 0.06 to 5000 nM
T1 construct: expressed in transfected cells; host or cells: HEK 293 cells, transient transfection with 2 DNA constructs
T1 sequence (Q15125 whole entry): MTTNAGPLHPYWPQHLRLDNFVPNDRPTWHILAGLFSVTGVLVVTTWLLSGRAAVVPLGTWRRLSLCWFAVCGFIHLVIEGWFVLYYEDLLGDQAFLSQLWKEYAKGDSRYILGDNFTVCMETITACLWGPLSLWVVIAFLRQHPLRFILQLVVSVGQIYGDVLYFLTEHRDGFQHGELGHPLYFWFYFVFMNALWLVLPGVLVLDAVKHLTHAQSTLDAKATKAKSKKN
Procedure: Membrane Preparation: human emopamil binding protein and human 7-dehydrocholesterol reductase co-expressing cells were generated by transient transfecting host human embryonic kidney (HEK) 293 cells with 2 DNA constructs containing each protein's coding sequence. Cells were suspension cultured at 37° C. with 5% CO2 in […] 293 Expression Medium (Thermofisher). Whole cell membrane was prepared by harvesting the cell pellet, adding cold membrane buffer (50 mM Tris, pH7.5, lx Roche COMPLETE EDTA-free protease inhibitor cocktail) 10 times volume of the cell pellets weight, lysing cell pellet on ice by using Dounce homogenizer, spinning at 200 g 4° C. for 15 min, collecting supernatant and spinning again at 25000 g 4° C. for 50 min, transferring pellet to Dounce homogenizer, re-suspending pellet by homogenizing in membrane buffer on ice to reach ˜25 mg/mL, then keeping whole cell membrane aliquots at −80° C.
Compounds were prepared in a 96-well U bottom plate using an Echo550 machine and 10 mM compound DMSO stock solution, followed by an 8-dose 5-fold serial dilutions protocol with final testing compound concentration ranging from 0.06 to 5000 nM, with DMSO back fill to 100 nL/well and n=2. […] The UniFilter-96 GF/B plates were pre-treated by adding 50 µl/well of 0.3% (v/v) PEI to UniFilter-96 GF/B plates. The plates were sealed and incubated at 4° C. for 3 hrs. Then, the plates were washed with ice-cold assay buffer 3 times. The radioligand binding assay was prepared by adding assay buffer diluted hEBP-DHCR7 membrane at 66.7 μg/ml×150 l/well into the 96-well compound plate to reach 10 μg membrane per well. Then, the assay buffer diluted [3H]—((S)-6-(2-Methyl-3-(6-(trifluoromethyl)pyridin-3-yl)propyl)-2-thia-6-azaspiro[3.4]octane 2,2-dioxide or (R)-6-(2-Methyl-3-(6-(trifluoromethyl)pyridin-3-yl)propyl)-2-thia-6-azaspiro[3.4]octane 2,2-dioxide) was added at 25 nM×50 l/well. Following this, the plate was centrifuged at 1000 rpm for 30 secs. The plate was then sealed and agitated at 600 rpm at 22° C. for 5 min, and then incubated at 22° C. for 3 hrs. The incubation was stopped by transferring the binding solution to the pre-treated UniFilter-96 GF/B plate, vacuum filtrated, and then washed four times with ice-cold assay buffer. Following this, the plates were dried at 37° C. for 45 min. The plates were then sealed at the bottom. 40 µl/well of scintillation cocktail was added to the plates. A MicroBeta2 microplate counter was then used to read the plate and analyze the data. For reference and test compounds, the results are expressed as % Inhibition, using the normalization equation: N=100−100×(U−C2)/(C1−C2), where U is the unknown value, C1 is the average of high controls, and C2 is the average value of low controls. The IC50 was determined by fitting percentage of inhibition as a function of compound concentrations with Hill equation using XLfit. Results are expressed as hEBP-DHCR7 Ki (uM) in Table 4. Ki was calculated as described above; * indicates isolated isomer or isomers, but that the stereochemistry has not been assigned.

EpiSC-derived OPCs = experiment: In vitro phenotypic screening of OPCs (MBP high-content imaging); type: cell-based; details: Mus musculus, 72 h; percentage of MBP-positive oligodendrocytes, 3 days, 0.5 nM to 1000 nM; read-out: OPC EC50
Procedure: (§1) To assess effects of treatments on OPCs, all treatments were assayed in two or more independent platings of epiblast stem cell-derived OPCs (EpiSC). EpiSC-derived OPCs were obtained using in vitro differentiation protocols and culture conditions described previously (Najm et al, 2011, Nature Methods). OPCs were expanded and frozen down in aliquots. OPCs were thawed into growth conditions for at least one passage before use in further assays.
EpiSC-derived OPCs were grown and expanded in poly-L-ornithine (PO) and laminin-coated flasks in N2B27 media (DMEM/F12 (Gibco), N2-MAX (R&D Systems), B-27 (ThermoFisher), and GlutaMax (Gibco)) supplemented with FGF2 ([…], R&D systems, 233-FB-025) and PDGF-AA ([…], R&D systems, 233-AA-050) before harvesting for experiments. The cells were seeded onto poly-L-ornithine or poly-D-lysine coated CellCarrier Ultra plates (PerkinElmer) coated with laminin (Sigma, L2020) at a density of 150,000/cm^2 in N2B27 media without growth factors. For dose-response testing, a 1000× compound stock in dimethyl sulphoxide (DMSO) was added to assay plates, resulting in 8-point dose curves with final concentrations between 1000 nM and 0.5 nM. Positive controls and DMSO vehicle controls were included in each assay plate. Cells were incubated under standard conditions (37° C., 5% CO2) for 3 days and fixed with 4% paraformaldehyde (PFA) in phosphate buffered saline (PBS) for 20 min. Fixed plates were washed with PBS, permeabilized with 0.1% Triton X-100, and blocked with 10% donkey serum (v/v) in PBS for 40 min. Then, cells were labelled with MBP antibodies (Abcam, ab7349; 1:200) for 2 h at room temperature, washed with PBS, and stained with Alexa Fluor conjugated secondary antibodies (1:500) for 45 min. Nuclei were visualized by DAPI staining (Sigma; 1 μg/ml), followed by further PBS washes.
Cells and cell culture plates were imaged on the Operetta High Content Imaging and Analysis system (PerkinElmer). Analysis (PerkinElmer Harmony and Columbus software) began by identifying intact nuclei stained by DAPI. The peri-nuclear region of each cell was then cross-referenced with the […] (MBP) stain to identify oligodendrocyte nuclei, and from this the percentage of oligodendrocytes was calculated.

[2] = system: zymostenol accumulation in EpiSC-derived OPCs (EBP); experiment: GC/MS-based sterol profiling (zymostenol accumulation); type: cell-based; details: Mus musculus, 24 hours, 8 doses from 0.15 nM to 333 nM, read-out: Zymostenol GCMS EC50
Procedure: as §1
Sterols were monitored using a modified Folch wash protocol (Hubler et al, 2018, Nature). EpiSC-derived OPCs were plated at 100,000 cells per well in PO- and laminin-coated 96-well plates in N2B27 media without growth factors. After 24 hours, cells were rinsed with saline and plates were frozen. Cholesterol-d7 standard was then added to each well before drying under nitrogen stream and derivatization with 55 μl of bis(trimethylsilyl) trifluoroacetamide. After derivatization, 2 μl were analyzed by gas chromatography/mass spectrometry using an Agilent 5973 Network Mass Selective Detector equipped with a 6890 gas chromatograph system and a HP-5MS capillary column (30 m×0.25 mm×[…]). Samples were analyzed in full scan mode using electron impact ionization; ion fragment peaks were integrated to calculate sterol abundance, and quantitation was relative to cholesterol-d7. The following ion fragments were used to quantitate each metabolite: cholesterol-d7 (465), FF-Mas (482), cholesterol (368), zymostenol (458), zymosterol (456), Desmosterol (456, 343), 7-dehydrocholesterol (456, 325), lanosterol (393), lathosterol (458), 14-dehydrozymostenol (456, 351). […] All standards were obtained from Avanti Polar Lipids unless otherwise indicated. Calibration curves were generated by injecting varying concentrations of sterol standards and maintaining a fixed amount of cholesterol-D7. For normalized zymostenol accumulation results, the total amount of zymostenol measured after drug treatment was divided by the total amount of zymostenol accumulated after 24 hr treatment with 100 nM positive control reference.

Compound | Ki [1] [nM] | EC50 (EpiSC-derived OPCs) [nM] | EC50 [2] [nM]
C[C@H](C(F)F)n1nc(C(F)(F)F)cc1[C@H]1[C@@H]2C[C@H](N3CCC4(CC3)CS(=O)(=O)C4)C[C@@H]21 (racemic) [Compound 71*, 7-((1R,3R,5S,6r)-6-(1-((R)-1,1-difluoropropan-2-yl)-3-(trifluoromethyl)-1H-pyrazol-5-yl)bicyclo[3.1.0]hexan-3-yl)-2-thia-7-azaspiro[3.5]nonane 2,2-dioxide and 7-((1R,3S,5S,6r)-6-(1-((S)-1,1-difluoropropan-2-yl)-3-(trifluoromethyl)-1H-pyrazol-5-yl)bicyclo[3.1.0]hexan-3-yl)-2-thia-7-azaspiro[3.5]nonane 2,2-dioxide] | 17.8 | 76 | 17
CC(C)n1nc(-c2cccc(C(F)(F)F)c2)cc1[C@H]1[C@@H]2C[C@H](N3CCC4(C3)CS(=O)(=O)C4)C[C@@H]21 (single isomer, unassigned) [Compound 1] | 13.1 | 1.3 | 1.2
CC(C)n1nc(-c2cncc(C(F)(F)F)c2)cc1[C@H]1[C@@H]2C[C@@H](N3CCC4(C3)CS(=O)(=O)C4)C[C@@H]21 (single isomer, unassigned) [Compound 3] | 16.2 | 34 | 3.9
CC(C)n1nc(-c2cncc(C(F)(F)F)c2)cc1[C@H]1[C@@H]2C[C@@H](N3CC[C@@]4(CCS(=O)(=O)C4)C3)C[C@@H]21 (single isomer, unassigned) [Compound 7*] | 17.3 | 37 | 8.9
CC(C)n1nc(-c2cncc(C(F)(F)F)c2)cc1[C@H]1[C@@H]2C[C@@H](N3CC[C@]4(CCS(=O)(=O)C4)C3)C[C@@H]21 (single isomer, unassigned) [Compound 8*] | 18.1 | 2.5 | 3.6
CC(C)n1nc(-c2cncc(C(F)(F)F)c2)cc1[C@H]1[C@@H]2C[C@H](N3CC[C@]4(CCS(=O)(=O)C4)C3)C[C@@H]21 (single isomer, unassigned) [Compound 10*] | 19.9 | 13 | 4.8
CC(C)n1nc(C(F)(F)F)cc1[C@H]1[C@@H]2C[C@H](N3CCC4(CC3)CS(=O)(=O)C4)C[C@@H]21 (single isomer, unassigned) [Compound 44*] | 27 | 14 | 6.8
CC(C)n1nc(-c2cncc(OC(F)F)c2)cc1[C@H]1[C@@H]2C[C@@H](N3CCC4(CC3)CS(=O)(=O)C4)C[C@@H]21 (single isomer, unassigned) [Compound 45*] | 131 | 14 | 8.1
CC(C)n1nc(-c2cncc(OC(F)F)c2)cc1[C@H]1[C@@H]2C[C@H](N3CCC4(CC3)CS(=O)(=O)C4)C[C@@H]21 (single isomer, unassigned) [Compound 46*] | 34.6 | 44 | 24
CCn1nc(-c2cncc(C(F)(F)F)c2)cc1[C@H]1[C@@H]2C[C@H](N3CCC4(CC3)CS(=O)(=O)C4)C[C@@H]21 (single isomer, unassigned) [Compound 54*] | 32.8 | 31 | 9.1

The remaining compounds from weak to strong by Ki [1], led by results:

Ki [1] [nM] | EC50 (EpiSC-derived OPCs) [nM] | EC50 [2] [nM] | Compound
97.3 | 33 | 6.8 | CCn1nc(-c2cncc(C(F)(F)F)c2)cc1[C@H]1[C@@H]2C[C@@H](N3CCC4(CC3)CS(=O)(=O)C4)C[C@@H]21 (single isomer, unassigned) [Compound 53*]
55.3 | 24 | 9.4 | C[C@H](C(F)F)n1nc(C(F)(F)F)cc1[C@H]1[C@@H]2C[C@@H](N3CCC4(CC3)CS(=O)(=O)C4)C[C@@H]21 (racemic) [Compound 70*, 7-((1R,3S,5S,6r)-6-(1-((R)-1,1-difluoropropan-2-yl)-3-(trifluoromethyl)-1H-pyrazol-5-yl)bicyclo[3.1.0]hexan-3-yl)-2-thia-7-azaspiro[3.5]nonane 2,2-dioxide and 7-((1R,3R,5S,6r)-6-(1-((S)-1,1-difluoropropan-2-yl)-3-(trifluoromethyl)-1H-pyrazol-5-yl)bicyclo[3.1.0]hexan-3-yl)-2-thia-7-azaspiro[3.5]nonane 2,2-dioxide]
50.3 | 48 | 11 | CC(C)n1nc(C(F)(F)F)cc1[C@H]1[C@@H]2C[C@@H](N3CCC4(CC3)CS(=O)(=O)C4)C[C@@H]21 (single isomer, unassigned) [Compound 43*]
37.1 | 17 | 6.5 | CC(C)n1nc(-c2ccc(C(F)(F)F)nc2)cc1[C@H]1[C@@H]2C[C@@H](N3CCC4(C3)CS(=O)(=O)C4)C[C@@H]21 (single isomer, unassigned) [Compound 13]
26 | 18 | 3.5 | CC(C)(C)n1nc(C(F)(F)F)cc1[C@H]1[C@@H]2C[C@@H](N3CCC4(C3)CS(=O)(=O)C4)C[C@@H]21 (single isomer, unassigned) [Compound 57]
13 | 2.9 | 2 | CC(C)n1nc(-c2ccc(C(F)(F)F)nc2)cc1[C@H]1[C@@H]2C[C@H](N3CCC4(C3)CS(=O)(=O)C4)C[C@@H]21 (single isomer, unassigned) [Compound 14]
